Measurements taken from US20260216172A1, “COMPOUNDS AND METHOD FOR TREATING HIV INFECTION” (The United States of America, as represented by the …, priority 2023, published 2026).
Where two headings read alike, the source gives them in different places.

Key:
HIV-1RF = assay: Anti-HIV cytoprotection evaluation in CEM-SS cells (CPE inhibition, XTT); assay type: cell-based; conditions: Human immunodeficiency virus 1, 144 h, 6 days
Method: (§1) (a) Anti-HIV Cytoprotection Evaluation: Inhibition of virus-induced cytopathic effects (CPE) and cell viability following HIV replication in CEM-SS cells were measured by the use of XTT tetrazolium dye. CEM-SS cells (2.5×10^3 cells per well) were seeded in 96-well U-bottomed tissue culture plates in RPMI medium supplemented with 10% FBS, 2 mM L-glutamine, 100 U/ml penicillin and 100 μg/ml streptomycin. Serially diluted compounds (6 concentrations) and HIV-1RF diluted to a pre-determined titer to yield 85 to 95% cell killing at 6 days post-infection were be added to the plate. AZT was evaluated in parallel as a positive control. Following incubation at 37° C., 5% CO2 for six days, cell viability was measured by XTT staining. The optical density of the cell culture plate will be determined spectrophotometrically at 450 and 650 nm using Softmax Pro 4.6 software. Percent CPE reduction of the virus-infected wells and the percent cell viability of uninfected drug control wells was calculated to define the EC50, TC50 and therapeutic index (TI50) using Microsoft Excel Xlfit4.
as §1, with “Inhibition” for “(a) Anti-HIV Cytoprotection Evaluation: Inhibition”, “by” for “by the use of”, “wells were” for “wells was”

[1] = Cell viability of uninfected drug control wells, CEM-SS cells (XTT); assay type: cell-based; conditions: human, read-out: TC50
Method: as §1
as §1, with “Inhibition” for “(a) Anti-HIV Cytoprotection Evaluation: Inhibition”, “by” for “by the use of”, “wells were” for “wells was”

HIV-192RW009 = assay: Anti-HIV-1 cytoprotection assay in PBMCs (reverse transcriptase in supernatant); assay type: cell-based; conditions: Human immunodeficiency virus 1, 168 h; PBMC, HIV-192RW009, 7 days
Method: (§2) (b) Anti-HIV-1 Cytoprotection Assay in PBMCs: PHA-P stimulated PBMCs from three donors were pooled together and re-suspended in fresh tissue culture medium at 1×10^6 cells/ml and plated in the interior wells of a 96 well round bottom microplate at 50 μL/well. A 100 μL volume of 2× concentrations of compound-containing media were transferred to the round-bottom 96-well plate containing the cells in triplicate. Fifty microliters (50 μL) of HIV-1 at a pre-determined dilution was added. Each plate contained cell control wells and virus control wells in parallel with the experimental wells. After 7 days in culture, efficacy was evaluated by measuring the reverse transcriptase in the culture supernatants and the cells were stained with the tetrazolium dye XTT to evaluate cytotoxicity.

[2] = Cytotoxicity in PBMCs (XTT); assay type: cell-based; conditions: human, PHA-P stimulated PBMCs pooled from three donors, read-out: TC50
Method: as §2
as §2, with “This Example illustrates anti-HIV cytoprotection provided by compounds” for “(b) Anti-HIV-1 Cytoprotection Assay”, “accordance with another aspect of the invention, namely in PBMCs.” for “PBMCs:”

HIV-1 HT92599 (B) = assay: Anti-HIV-1 cytoprotection assay in PBMCs, isolate HT92599 (B); assay type: cell-based; conditions: Human immunodeficiency virus 1, PBMC, CXCR4
Method: as §2, with “This Example illustrates anti-HIV cytoprotection provided by compounds” for “(b) Anti-HIV-1 Cytoprotection Assay”, “accordance with another aspect of the invention, namely in PBMCs.” for “PBMCs:”

[3] = Pharmacokinetic study in male CD-1 mice; assay type: in vivo; conditions: for tlast / AUC0-inf / AUC(0-t) / Cmax / MRT inf / Tmax / half-life: 18 and 19 measured as metabolites; for AUC0-inf: 5 mg/kg
Method: Male CD-1 mice weighing between […] were dosed via orbital sinus injection and blood was collected via submandibular vein. IV dosing solutions were prepared in DMSO:PEG400:Saline (5:35:60, v/v/v) at 1 mg/mL concentration of the prodrug. Blood samples (50 μL each time point) were obtained via Culex at predetermined time points (0, 5, 15, 30, 60, 120, 240, 360, 480 and 1440 min) after dosing. Plasma was obtained by centrifugation within 30 minutes after collection and aliquots of dosing solutions were taken and analyzed at the same time with plasma samples using a validated LC-MS/MS method developed on a Shimadzu HPLC system interfaced to a Sciex QTRAP 5500 mass spectrometer. Eluents were gradient mixtures of water and acetonitrile with 0.10% formic acid. HPLC column was ACE 5 C8, 50×2.1 mm, […]. PK parameters of the analytes were obtained using Phoenix®, WinNonlin® software (version 8.1).
The study was performed in male CD-1 mice to assess pharmacokinetics (PK) of prodrug 17 and its metabolites 18 and 19.

HIV-1 BR93020 (F) = assay: Anti-HIV-1 cytoprotection assay in PBMCs, isolate BR93020 (F); assay type: cell-based; conditions: Human immunodeficiency virus 1, CCR5
Method: as §2, with “This Example illustrates anti-HIV cytoprotection provided by compounds” for “(b) Anti-HIV-1 Cytoprotection Assay”, “accordance with another aspect of the invention, namely in PBMCs.” for “PBMCs:”

HIV-1 CMU08 (E) = assay: Anti-HIV-1 cytoprotection assay in PBMCs, isolate CMU08 (E); assay type: cell-based; conditions: Human immunodeficiency virus 1, PBMC, CXCR4
Method: as §2, with “This Example illustrates anti-HIV cytoprotection provided by compounds” for “(b) Anti-HIV-1 Cytoprotection Assay”, “accordance with another aspect of the invention, namely in PBMCs.” for “PBMCs:”

HIV-1 UG92001 (D) = assay: Anti-HIV-1 cytoprotection assay in PBMCs, isolate UG92001 (D); assay type: cell-based; conditions: Human immunodeficiency virus 1, PBMC, CXCR4/CCR5
Method: as §2, with “This Example illustrates anti-HIV cytoprotection provided by compounds” for “(b) Anti-HIV-1 Cytoprotection Assay”, “accordance with another aspect of the invention, namely in PBMCs.” for “PBMCs:”

HIV-1 BCF01 (O) = assay: Anti-HIV-1 cytoprotection assay in PBMCs, isolate BCF01 (O); assay type: cell-based; conditions: Human immunodeficiency virus 1, CCR5
Method: as §2, with “This Example illustrates anti-HIV cytoprotection provided by compounds” for “(b) Anti-HIV-1 Cytoprotection Assay”, “accordance with another aspect of the invention, namely in PBMCs.” for “PBMCs:”

HIV-1 ZA97009 (C) = assay: Anti-HIV-1 cytoprotection assay in PBMCs, isolate ZA97009 (C); assay type: cell-based; conditions: Human immunodeficiency virus 1, CCR5
Method: as §2, with “This Example illustrates anti-HIV cytoprotection provided by compounds” for “(b) Anti-HIV-1 Cytoprotection Assay”, “accordance with another aspect of the invention, namely in PBMCs.” for “PBMCs:”

PBMCs = assay: Cytotoxicity in PBMCs (XTT); assay type: cell-based; conditions: PBMCs, read-out: TC50 (the source's name)
Method: as §2
as §2, with “This Example illustrates anti-HIV cytoprotection provided by compounds” for “(b) Anti-HIV-1 Cytoprotection Assay”, “accordance with another aspect of the invention, namely in PBMCs.” for “PBMCs:”

HIV-1 RU132 (G) = assay: Anti-HIV-1 cytoprotection assay in PBMCs, isolate RU132 (G); assay type: cell-based; conditions: Human immunodeficiency virus 1, CCR5
Method: as §2, with “This Example illustrates anti-HIV cytoprotection provided by compounds” for “(b) Anti-HIV-1 Cytoprotection Assay”, “accordance with another aspect of the invention, namely in PBMCs.” for “PBMCs:”

HIV-1 RW92009 (A) = assay: Anti-HIV-1 cytoprotection assay in PBMCs, isolate RW92009 (A); assay type: cell-based; conditions: Human immunodeficiency virus 1, PBMC, CXCR4/CCR5
Method: as §2, with “This Example illustrates anti-HIV cytoprotection provided by compounds” for “(b) Anti-HIV-1 Cytoprotection Assay”, “accordance with another aspect of the invention, namely in PBMCs.” for “PBMCs:”

[4] = tested on: simian immunodeficiency virus (SIV); conditions: SAMT-247 in combination with ΔV1DNA-ALVAC/gp120/alum vaccine; Rahman et al., Nature Microbiology 8; cited from earlier work
[5] = PBMC, HIV-192RW009, 7 days, XTT
[6] = mouse, in vivo, single IV bolus 5 mg/kg of compound 17, male CD-1 mice, plasma
[7] = single IV bolus 5 mg/kg of compound 17, male CD-1 mice, plasma
[8] = male, CD-1, mouse, in vivo, iv, single IV bolus 5 mg/kg of compound 17, male CD-1 mice, plasma, read-out: AUC0-inf

SMILES: CCCC(=O)OCSc1ccccc1C(=O)NCCn1ccc(=O)c2cc(F)ccc21 [Compound 1, ((2-((2-(6-fluoro-4-oxoquinolin-1(4H)-yl)ethyl)carbamoyl)phenyl)thio)methyl butyrate]
- EC50 (HIV-1RF): 0.56 µM
- CC50 at 6 days [1]: 56.2 µM
- EC50 (HIV-192RW009): 2.48 µM
- CC50 at 7 days [2, 5]: > 100 µM

SMILES: CCCC(=O)OCSc1ccccc1C(=O)NCCn1ccc(=O)c2cc3c(cc21)OCO3 [Compound 2, ((2-((2-(8-oxo-[1,3]dioxolo[4,5-g]quinolin-5(8H)-yl)ethyl)carbamoyl)phenyl)thio)methyl butyrate]
- EC50 (HIV-1RF): 1.15 µM
- CC50 at 6 days [1]: 32.2 µM
- EC50 (HIV-192RW009): 0.48 µM
- CC50 at 7 days [2, 5]: > 100 µM

SMILES: Cn1cnc([N+](=O)[O-])c1Sc1ccccc1C(=O)NCCn1ccc(=O)c2cc3c(cc21)OCO3 [Compound 3, 2-((1-methyl-4-nitro-1H-imidazol-5-yl)thio)-N-(2-(8-oxo-[1,3]dioxolo[4,5-g]quinolin-5(8H)-yl)ethyl)benzamide]
- EC50 (HIV-192RW009): 17.7 µM
- CC50 at 7 days [2, 5]: > 100 µM

SMILES: CCCC(=O)OCSc1ccccc1C(=O)NCCn1cc(C(=O)NCc2cccc(C)n2)c(=O)c2cc3c(cc21)OCO3 [Compound 4, ((2-((2-(7-(((6-methylpyridin-2-yl)methyl)carbamoyl)-8-oxo-[1,3]dioxolo[4,5-g]quinolin-5(8H)-yl)ethyl)carbamoyl)phenyl)thio)methyl butyrate]
- EC50 (HIV-1RF): 0.48 µM
- CC50 at 6 days [1]: > 100 µM
- EC50 (HIV-192RW009): 1.09 µM
- CC50 at 7 days [2, 5]: > 100 µM

SMILES: CCCC(=O)OCSc1ccccc1C(=O)NCCn1cc(C(=O)NCc2ccccn2)c(=O)c2cc3c(cc21)OCO3 [Compound 5, ((2-((2-(8-oxo-7-((pyridin-2-ylmethyl)carbamoyl)-[1,3]dioxolo[4,5-g]quinolin-5(8H)-yl)ethyl)carbamoyl)phenyl)thio)methyl butyrate]
- EC50 (HIV-1RF): 0.54 µM
- CC50 at 6 days [1]: > 100 µM
- EC50 (HIV-192RW009): 0.91 µM
- CC50 at 7 days [2, 5]: > 100 µM

SMILES: Cc1cccc(CNC(=O)c2cn(CCNC(=O)c3ccccc3Sc3c([N+](=O)[O-])ncn3C)c3cc4c(cc3c2=O)OCO4)n1 [Compound 6, 5-(2-(2-((1-methyl-4-nitro-1H-imidazol-5-yl)thio)benzamido)ethyl)-N-((6-methylpyridin-2-yl)methyl)-8-oxo-5,8-dihydro-[1,3]dioxolo[4,5-g]quinoline-7-carboxamide]
- EC50 (HIV-192RW009): 30.9 µM
- CC50 at 7 days [2, 5]: > 100 µM

SMILES: CCCC(=O)OCSc1ccccc1C(=O)NCCn1cc(C(=O)NCc2cccc(C)n2)c(=O)c2cc3c(cc21)OC(F)(F)O3 [Compound 17, ((2-((2-(2,2-difluoro-7-(((6-methylpyridin-2-yl)methyl)carbamoyl)-8-oxo-[1,3]dioxolo[4,5-g]quinolin-5(8H)-yl)ethyl)carbamoyl)phenyl)thio)methyl butyrate]
- EC50 (HIV-1 HT92599 (B)): 6.52 µM
- clearance ([3]; mouse, in vivo, single IV bolus 5 mg/kg of compound 17, male CD-1 mice): 136 mL/min/kg
- C0 [3, 6]: 1910 ng/mL
- Vd ([3]; mouse, in vivo, single IV bolus 5 mg/kg of compound 17, male CD-1 mice, read-out: Vss): 9.6 L/kg
- tlast [3, 7]: 8.00 h
- EC50 (HIV-1 BR93020 (F)): 2.01 µM
- EC50 (HIV-1 CMU08 (E)): 5.23 µM
- EC50 (HIV-1 UG92001 (D)): 5.14 µM
- EC50 (HIV-1 BCF01 (O)): 7.79 µM
- EC50 (HIV-1RF): 1.48 µM
- CC50 at 6 days [1]: > 100 µM
- EC50 (HIV-1 ZA97009 (C)): 10.7 µM
- CC50 at 7 days ([2]; PBMCs, line of isolate CMU08 (E)): > 100 µM
- CC50 (PBMCs; line of isolate BCF01 (O)): > 100 µM
- CC50 (PBMCs; line of isolate BR93020 (F)): > 100 µM
- CC50 (PBMCs; line of isolate HT92599 (B)): > 100 µM
- CC50 (PBMCs; line of isolate RU132 (G)): > 100 µM
- CC50 (PBMCs; line of isolate RW92009 (A)): > 100 µM
- CC50 (PBMCs; line of isolate UG92001 (D)): > 100 µM
- CC50 (PBMCs; line of isolate ZA97009 (C)): > 100 µM
- EC50 (HIV-1 RU132 (G)): 6.85 µM
- EC50 (HIV-1 RW92009 (A)): 4.26 µM

SMILES: Cc1cccc(CNC(=O)c2cn(CCNC(=O)c3ccccc3Sc3c([N+](=O)[O-])ncn3C)c3cc4c(cc3c2=O)OC(F)(F)O4)n1 [Compound 18, 2,2-difluoro-5-(2-(2-((1-methyl-4-nitro-1H-imidazol-5-yl)thio)benzamido)ethyl)-N-((6-methylpyridin-2-yl)methyl)-8-oxo-5,8-dihydro-[1,3]dioxolo[4,5-g]quinoline-7-carboxamide]
- AUC0-inf [3, 8]: 42.5 ng·h/mL
- Exposure (AUC0-t) lower than that of 17 ([3]; metabolite versus 17 after single IV bolus 5 mg/kg of 17, male mice): approximately 17 fold
- AUC(0-t) [3, 6]: 34.8 ng·h/mL
- Cmax [3, 6]: 75.6 ng/mL
- MRT inf [3, 6]: 224 min
- Tmax [3, 6]: 4.98 min
- half-life [3, 6]: 164 min
- tlast [3, 7]: 8.00 h
- AUC0-inf [3, 7]: 34.8 ng·h/mL

SMILES: Cc1cccc(CNC(=O)c2cn(CCNC(=O)c3ccccc3S)c3cc4c(cc3c2=O)OC(F)(F)O4)n1 [Compound 19]
- AUC0-inf [3, 8]: 13.1 ng·h/mL
- AUC(0-t) [3, 6]: 12.8 ng·h/mL
- Cmax [3, 6]: 46.9 ng/mL
- MRT inf [3, 6]: 19.8 min
- Tmax [3, 6]: 4.98 min
- half-life [3, 6]: 21 min
- tlast [3, 7]: 2.00 h
- AUC0-inf [3, 7]: 12.8 ng·h/mL

SMILES: CC(=O)Sc1ccccc1C(=O)NCCC(N)=O [SAMT-247, 3-(S-acetylthiosalicyloyl)aminopropamide or N-[2-ccetylthiobenzoyl]-β-alaninamide]
- female macaques protected against vaginal acquisition of SIV [4]: 16 out of 20
